Laboratory results taken from US9682926B2, “Cancer chemotherapeutic agent/formulation, manufacture and use thereof” (Bose Institute, priority 2012, dated 2017).
Values joined by “and” are separate entries in the source; they are usually repeats but may differ in a detail not shown here. Equal values may be shown once. Read-outs that look alike come from different tables or passages of the source.

What was measured:
[1] = Serum biochemical markers of toxicity (ALT, AST, ALP, creatinine); format: in vivo, Swiss albino mice; conditions: all M2 treated groups except the highest dose (40 μM)
Experimental: Alanine aminotransferase (ALT), aspartate aminotransferase (AST), alkaline phosphatase (ALP) and creatinine levels were measured from collected sera using kits (Sigma).

[2] = system: Ehrlich's ascites carcinoma (EAC); experiment: Ehrlich's ascites carcinoma (EAC) tumor model: tumor volume and cell count; format: in vivo; conditions: EAC bearing mice, 35 μM, vs EAC control and cyclophosphamide treated
Source text: Ehrlich's ascites carcinoma (EAC) cells were maintained by serial intra-peritoneal passage of 10^5 cells per mice. EAC cells were collected from tumor-bearing mice at the exponential phase of growth, roughly 7 days after tumor transplant. The cells were drawn out aseptically with the help of a fine needle. The cells were washed in PBS and counted with the help of a Hemocytometer by the Trypan Blue dye exclusion test. The cells were suspended in PBS and inoculated into the next batch of mice.

S-180 tumor cells [3] = experiment: Comet assay in sarcoma tumor cells from treated mice (apoptosis); format: in vivo, Swiss albino mice; conditions: S-180 bearing mice, vs untreated sarcoma control
Experimental: Comet assay is a sensitive, reliable, and rapid method for DNA damage evaluation. The segmented DNA emigrates from the nucleus towards the anode under an electrical current to produce comets. About 400 μl of the cell suspension was mixed with 800 μl 1% low melting point agarose. Then 100 μl of the mixture was layered on slides precoated with a 1% normal melting point agarose and then covered with a cover slip. The slides were then placed in a refrigerator for 5 min. Then cover slips were carefully removed and the slides were left in a dark place except for the positive control slides. The positive control slides were treated with 200 μM H2O2 solution for 17 min at 4° C., while the negative control slides remained untreated. Then all the slides were immersed in cold lysis solution (2.5 M NaCl, 100 mM EDTA, 0.2 M NaOH, 10 mM Tris, 1% Triton X-100, pH=10), protected from light and refrigerated at 4° C. for 45 min. Slides were then left in freshly prepared electrophoresis solution (0.3 M NaOH, 1 mM EDTA, pH>13,) for 40 min. Electrophoresis was performed using the same solution at 300 mA, 25 V for 45 min. After electrophoresis the slides were neutralized gently with 0.4 M Tris buffer at pH 7.5 for 10 min and stained with 20 μg/ml ethidium bromide for 7 min. […] Comets were counted in four to five different fields of a section, and data are summarized in terms of percent comet. […]

PCNA [4] = experiment: Western blot of PCNA in tumor tissue; format: in vivo, Swiss albino mice; conditions: S-180 tumor tissue
Experimental: (§1) Cell lysates were obtained and equal amounts of protein from each sample were diluted with loading buffer, denatured, and separated by 10% sodium dodecyl sulfate-polyacrylamide gel electrophoresis (SDS-PAGE) followed by protein transfer to polyvinylidene fluoride membranes (PVDF). […] Proteins were detected by incubation with corresponding primary antibodies (anti p53, anti-p21, anti-Nrf-2, anti-ERK3 and anti-PCNA) antibodies followed by blotting with AP-conjugated secondary antibody. The blots were then exposed to NBT/BCIP substrate for detection. This analysis was performed three times.

ERK = experiment: Western blot of ERK in tumor tissue; format: in vivo, Swiss albino mice; conditions: S-180 tumor tissue, compared to sarcoma control and cyclophosphamide treated groups
Experimental: as §1

[5] = system: HeLA: Cervical Cancer Cell with unstable P53; experiment: Cytotoxicity against cancer cell lines: HeLA; format: cell-based
Experimental: (§2) Cancer cell lines with functional or disrupted p53 expression were maintained in ATCC recommended culture media supplemented with 10% FBS, 100 μg/ml streptomycin and 50 units/ml penicillin, at 37° C. in a humidified incubator containing 5% CO2. For experiments, cells (10^6) were plated with 2% serum and then the required experiments were performed. […] Simultaneously, the effect of the compound was also investigated in one p53 mutated breast cancer cell line and in one cervical cancer cell line with disrupted p53 pathway.

bone marrow cells [6] = format: in vivo, Swiss albino mice; conditions: S-180 tumor bearers
Source text: (§3) The cells were resuspended in RPMI-1640.

human PBMC [7] = experiment: Cytotoxicity (cell viability) of M2 against human PBMC; format: cell-based; conditions: highest dose 30 μM
[8] = Experimental: (§4) The homogenate was then centrifuged at 10,000 g at 4° C. for 20 mins.
The amount of malondialdehyde was measured by reaction with thiobarbituric acid at 532 nm using spectrophotometer. MDA levels were calculated using the standard curve of malondialdehyde and its level expressed in nM/mg of protein.

bone marrow cells [9] = format: in vivo; conditions: EAC tumor bearing mice
Source text: as §3

SOD, CAT and GST = system: SOD, CAT and GST
Experimental: as §4
Briefly, assay mixture consists of 3 mL of H2O2 phosphate buffer and 0.05 mL of the supernatant of the tissue homogenate. The change in absorbance was recorded for 2 min at 30 s interval at 240 nm using spectrophotometer.
One unit of enzyme activity is defined as the amount of enzyme necessary for inhibiting the reaction by 50%. Auto oxidation of Pyrogallol in Tris-HCL buffer (50 mM, pH 7.5) is measured by increase in absorbance at 420 nm.

S-180 tumor cells [10] = system: S-180 tumor cells
Source text: (§5) For the determination of cell cycle phase distribution of nuclear DNA, cells from bone marrow and tumor tissue (1×10^6 cells) were harvested from tumor bearing untreated and treated mice.

bone marrow cells [11] = system: bone marrow cells
Source text: as §5

[12] = system: A 549: Lung Cancer cell with wild type p53; experiment: Cytotoxicity against cancer cell lines: A 549; format: cell-based
Experimental: as §2

[13] = system: MCF-7: Breast Cancer cell with p53 wild type; experiment: Cytotoxicity against cancer cell lines: MCF-7; format: cell-based
Experimental: as §2

[14] = system: MDA MB 231: Breast Cancer cell with p53 mutation; experiment: Cytotoxicity against cancer cell lines: MDA MB 231; format: cell-based
Experimental: as §2

human PBMC [15] = experiment: Cytotoxicity (cell viability) of M2 against human PBMC; format: cell-based; conditions: for Total Cell Count (% survival): mean ± SD of five experiments
Experimental: Peripheral blood mononuclear cells (PBMC) were isolated from normal human blood and were maintained in RPMI supplemented with 10% FBS, 100 μg/ml streptomycin and 50 units/ml penicillin, at 37° C. in a humidified incubator containing 5% CO2. […] The doses that were tested ranged between 0.5433×10^−7 μM to 35 μM.

[16] = system: HepG2: Liver Cancer cell with wild type p53; experiment: Cytotoxicity against cancer cell lines: HepG2; format: cell-based
Experimental: as §2

MDA MB 231 (p53 mutated) = experiment: Cell cycle analysis of M2 treated p53 mutated breast cancer cell line (PI flowcytometry); format: cell-based; conditions: 12 hour exposure
Experimental: Cell cycle analyses were performed with the p53 mutated breast cancer cell line to explore deeper into the probable mechanism. […] For experiments, cells (10^6) were plated with 2% serum and then the required experiments were performed. Cells were harvested after 12 hour exposure with the compound at varying concentrations and cell cycle phase distribution of nuclear DNA was determined by flowcytometry using propidium iodide (PI) as DNA-binding fluorochrome.
Analyses of the cells in sub GO phase and S/G2/M are given as mean±Standard Deviation of five independent experiments.

[17] = target: G-Quadruplex 5′-TAGGG(TTAGGG)3-3′; experiment: Fluorescence emission titration with G-Quadruplex; conditions: read-out: equilibrium dissociation constant (KD); from change in fluorescence emission maxima of G-Quadruplex
Experimental: The emission spectra of a DNA duplex and G-Quadruplex sequence were recorded at room temperature using Hitachi spectrometer (F-700 FL spectrophotometer) with one cm path-length quartz cuvette. The emission spectrum was recorded from 300-500 nm with an excitation wavelength of 260 nm. Excitation and emission slits were set to 5 nm each. Emission spectra were recorded by titrating small molecules up to 50 μM concentration against 10 μM G-Quadruplex and duplex DNA.

Nrf-2 = experiment: Western blot of Nrf-2 in liver; format: in vivo, Swiss albino mice; conditions: S-180 tumor bearers, compared to sarcoma control
Experimental: as §1

PCNA [18] = experiment: Western blot of PCNA in bone marrow; format: in vivo, Swiss albino mice; conditions: all M2 treated groups, compared to sarcoma control
Experimental: as §1

Sarcoma 180 cells = experiment: Cytotoxicity study against Sarcoma 180 cells in vitro; format: cell-based, murine; conditions: Sarcoma 180 (in vitro)
Experimental: Before entering into the in vivo experiments with solid transplantable tumour model of sarcoma 180, the drug's efficacy was tested against the same tumor cell in vitro.

[19] = S-180 tumor bearers, cyclophosphamide treatment

CN(CCC#N)c1ccc(C=NCCCN=Cc2ccc(N(C)CCC#N)cc2)cc1 [M2, Bis(3-[4-({[3-({4-[(2 cyanoethyl)(methyl)amino]benzylidene}amino)propyl]imino}methyl)(methyl)anilino]propanenitrile)]
Serum ALT, AST, ALP values and creatinine levels [1]: within the normal range | tumor cell count [2]: significant reduction | tumor volume [2]: significant reduction | DNA damage in tumor cells (percentage of comet cells per field) (S-180 tumor cells [3]): significant DNA damage | PCNA expression in tumor tissues (PCNA [4]): decrease | expression of ERK in tumor tissues (ERK): significantly reduce | Death Percentages ([5]; dose 15 μM): 20.5 ± 4.20% | Death Percentages ([5]; dose 20 μM): 37.75 ± 5.44% | Death Percentages ([5]; dose 25 μM): 46.75 ± 5.38% | bone marrow cell count / bone marrow suppression (bone marrow cells [6]): did not cause bone marrow suppression | cytotoxic effect on human PBMC (human PBMC [7]): cytotoxic effect | hepatic LPO levels (oxidative stress) ([8]; mouse, in vivo): significant decrease | effect on bone marrow (cell count) (bone marrow cells [9]): protective effect | activity of hepatic anti-oxidant enzymes SOD, CAT and GST (SOD, CAT and GST; mouse, in vivo): increase | hypoploid cells (sub-G0 region) of tumor cells (S-180 tumor cells [10]; mouse, in vivo): 39.94% and 69.2% and 41.5% | proliferative stage (sum of S and G2/M) of tumor cells (S-180 tumor cells [10]; mouse, in vivo): distinctive depression | bone marrow hypoploidy peak (bone marrow cells [11]; mouse, in vivo): 5.4% | bone marrow proliferative phase (bone marrow cells [11]; mouse, in vivo): did not decrease | Death Percentages ([12]; A 549, dose 15 μM): 26 ± 4.32% | Death Percentages ([12]; A 549, dose 20 μM): 34.25 ± 4.35% | Death Percentages ([12]; A 549, dose 25 μM): 47.75 ± 6.34% | Death Percentages ([13]; MCF-7, dose 15 μM): 23.00 ± 7.26% | Death Percentages ([13]; MCF-7, dose 20 μM): 32.5 ± 2.89% | Death Percentages ([13]; MCF-7, dose 25 μM): 41.5 ± 2.65% | Death Percentages ([14]; MDA MB 231, dose 15 μM): 36.50 ± 5.00% | Death Percentages ([14]; MDA MB 231, dose 20 μM): 47.00 ± 6.78% | Death Percentages ([14]; MDA MB 231, dose 25 μM): 60% and 60.25 ± 9.03% | effect on the viability of human PBMC (human PBMC [15]; doses 0.1 to 25 μM): negligible effect | PBMC that could not survive the treatment (human PBMC [15]; human PBMC, 35 μM, 12 hours): ~25% | Total Cell Count (% survival) (human PBMC [15]; human PBMC, dose 1 μM): 90.67 ± 2.16% | Total Cell Count (% survival) (human PBMC [15]; human PBMC, dose 5 μM): 89.50 ± 1.05% | Total Cell Count (% survival) (human PBMC [15]; human PBMC, dose 10 μM): 88.67 ± 1.75% | Total Cell Count (% survival) (human PBMC [15]; human PBMC, dose 15 μM): 88.83 ± 1.47% | Total Cell Count (% survival) (human PBMC [15]; human PBMC, dose 20 μM): 87.33 ± 1.97% | Total Cell Count (% survival) (human PBMC [15]; human PBMC, dose 25 μM): 85.17 ± 1.94% | Total Cell Count (% survival) (human PBMC [15]; human PBMC, dose 30 μM): 77.67 ± 3.44% | Death Percentages ([16]; HepG2, dose 15 μM): 20.75 ± 5.25% | Death Percentages ([16]; HepG2, dose 20 μM): 38.5 ± 6.25%, | Death Percentages ([16]; HepG2, dose 25 μM): 55.86 ± 7.12% | % S/G2/M as from cell cycle analysis (MDA MB 231 (p53 mutated); MDA MB 231, dose 15 μM): 10.76 ± 1.38% | % Sub G0 as from cell cycle analysis (MDA MB 231 (p53 mutated); MDA MB 231, dose 15 μM): 16.08 ± 2.28% | % S/G2/M as from cell cycle analysis (MDA MB 231 (p53 mutated); MDA MB 231, dose 20 μM): 12.09 ± 1.77% | % Sub G0 as from cell cycle analysis (MDA MB 231 (p53 mutated); MDA MB 231, dose 20 μM): 27.38 ± 2.28% | % S/G2/M as from cell cycle analysis (MDA MB 231 (p53 mutated); MDA MB 231, dose 25 μM): 16.94 ± 4.82% | % Sub G0 as from cell cycle analysis (MDA MB 231 (p53 mutated); MDA MB 231, dose 25 μM): 30.50 ± 4.96% | Kd [17]: 31 ± 1.2 µM | Nrf-2 expression in the liver (Nrf-2): increased | PCNA expression in bone marrow (PCNA [18]): significant increase | Death Percentages (Sarcoma 180 cells; dose 15 μM): 36.67 ± 6.12% | Death Percentages (Sarcoma 180 cells; dose 20 μM): 50.33 ± 5.03% | Death Percentages (Sarcoma 180 cells; dose 25 μM): 57.33 ± 4.16%

O=P1(N(CCCl)CCCl)NCCCO1 (stereo not shown) [cyclophosphamide, reference compound]
bone marrow cell count / bone marrow suppression (bone marrow cells [6]): significant depression | hepatic LPO levels (oxidative stress) ([8]; liver of S-180 tumor bearers, vs sarcoma control): further enhanced | effect on bone marrow (cell count) (bone marrow cells [9]): induces myelosuppression | activity of hepatic anti-oxidant enzymes SOD, CAT and GST (SOD, CAT and GST; liver of S-180 tumor bearers, vs normal and sarcoma control): depression | hypoploid cells (sub-G0 region) of tumor cells (S-180 tumor cells [10]; S-180 bearing mice, cyclophosphamide treated group): 42.1% | bone marrow hypoploidy peak (bone marrow cells [11]; [19]): 48.5% | bone marrow proliferative phases (S and G2/M combined) (bone marrow cells [11]; [19]): 3%
